# Test results published in US20140093884A1, “Process for Identifying Novel Anti-Inflammatory Molecules with Reduced Direct Transrepression of Genes Induced by Glucocorticoids” (UNIVERSITE DE STRASBOURG, priority 2011, published 2014).
# Tests used:
# [1] = system: TSLP; assay: TSLP transcript levels in mouse ear epidermis after topical treatment (Q-RT-PCR); type: in vivo
# Source text: Mice. […] Real time PCR. Total RNA was reverse transcribed using hexamers, followed by Q-PCR, as reported (Li et al., 2005). The GC agonist fluocinolone acetonide (FA) was applied to ears of mice concomitantly treated with the “low-calcemic” Vitamin D3 (VitD3) analog MC903 (Calcipotriol; hereafter called MC) to trigger TSLP expression (Li et al., 2006). […] As expected, the expression of the GC-inducible GPX3 (glutathione peroxidase 3) gene which harbours a (+)GRE (Tuckermann et al., 1999) was enhanced by FA (FIG. 10) and inhibited by RU co-treatment, while FA or RU had no effect on MC-dependent expression of the CYP24A1 gene (a VitD3 target) (FIG. 10). […] Although the basal TSLP level was similar in vehicle-treated WT and GR^ep−/− mice, FA blocked MC-induced TSLP expression in WT, but not in GR^ep−/− mice (not shown).
# [2] = system: IR0 and IR2 nGRE containing genes; assay: Dex with RU co-administration, expression of IR0 and IR2 genes in epidermis, intestinal epithelium and liver; type: in vivo, mouse; details: Dex-treated mice, in all cases
# Experimental: Mice. For topical treatment, 1 nmole (nm)/cm^2 MC903, at-RA or TPA; 6 nm/cm^2 FA, Dex or RU24858; and 90 nm/cm^2 RU486 were used. For systemic use, 100 ng/kg body weight active Vit D3, 8 mg/kg Dex and 64 mg/kg RU486 was intraperitoneally injected. GRdim mice were from the European Mouse Mutant Archives (EM:02123). Breeding, maintenance and experimental manipulation of mice were approved by the Animal Care and Use Committee of the IGBMC.
# [3] = system: IR nGRE genes CCND1, PRKCB, FSTL1; details: mouse, in vivo
# Experimental: (§1) Gene transcripts in epidermis of WT and GRdim mutant mice topically treated as indicated for 6 hours are analysed by Q-RT-PCR.
# (§2) Note that epidermis was treated as indicated with TPA, to activate NFκB and AP1 factors.
# [4] = system: IR nGRE (pGL3(VDRE) IR1 nGRE luciferase reporter); assay: Luciferase reporter assay in A549 cells, pGL3(VDRE) IR nGRE plasmids; type: cell-based, human; details: pGL3(VDRE) IR1 nGRE
# Experimental: Luciferase reporter assay. A549 cells seeded on 24-well tissue culture plates overnight at 70% confluency were transfected with 100 ng pCMV β galactosidase, 200 ng pGL3 reporter plasmids and wherever indicated, with 600 ng pSG5 hVDR plasmid (Green et al., 1988) into each well and maintained in medium containing charcoal treated FCS. 24 hours post-transfection, medium was changed and different compounds were added to it for 6 hours. […] Luciferase assay was carried out as instructed (Promega). Normalized values are reported as the mean±SEM; each value originates from at least three individual transfections with assays performed in duplicate.
# To investigate whether additional DNA elements could be required to generate a repressing activity, the TSLP IR1 nGRE was inserted upstream of an enhancerless SV40 early promoter located 5′ to the luciferase coding sequence of pGL3 vector, A VDRE separated from the IR1 nGRE by a 314 bp-long DNA segment devoid of any known transregulator binding site (not shown) was inserted to generate a luciferase-expressing reporter plasmid (pGL3(VDRE) IR1 nGRE, FIG. 4), which was transfected into A549 cells, followed by addition of VitD3 and/or FA.
# To investigate whether the 1 bp spacer between the inverted repeated motifs of TSLP IR1 nGRE was critical for its repressing function, pGL3-based luciferase plasmids containing the VDRE and TSLP nGRE motifs spaced by 0 to 5 bases (IR0 to IR5 nGREs) were transfected into A549 cells.
# [5] = system: CYP24A1 gene (a VitD3 target); assay: CYP24A1 transcript levels in mouse ear epidermis after topical treatment (Q-RT-PCR); type: in vivo; details: mouse ears, FIG. 10
# Source text: (§3) Mice. […] Real time PCR. Total RNA was reverse transcribed using hexamers, followed by Q-PCR, as reported (Li et al., 2005). The GC agonist fluocinolone acetonide (FA) was applied to ears of mice concomitantly treated with the “low-calcemic” Vitamin D3 (VitD3) analog MC903 (Calcipotriol; hereafter called MC) to trigger TSLP expression (Li et al., 2006). […] As expected, the expression of the GC-inducible GPX3 (glutathione peroxidase 3) gene which harbours a (+)GRE (Tuckermann et al., 1999) was enhanced by FA (FIG. 10) and inhibited by RU co-treatment, while FA or RU had no effect on MC-dependent expression of the CYP24A1 gene (a VitD3 target) (FIG. 10).
# [6] = system: GPX3 (glutathione peroxidase 3) gene, (+)GRE; assay: GPX3 transcript levels in mouse ear epidermis after topical treatment (Q-RT-PCR); type: in vivo; details: WT mice, ears, topical, FIG. 10
# Source text: as §3
# [7] = system: Cox2 gene (NFκB and AP1 binding sites); assay: Q-RT-PCR of Cox2 in epidermis of WT and GRdim mice topically treated 6 hours (TPA-activated); details: mouse, in vivo
# Experimental: as §1, §2
# [8] = target: T1, repressing complex tethered to NFκB (Homo sapiens, UniProt P04150); assay: ChIP of repressing complex tethered to NFκB on PGL4-NFκB vector in A549 cells; type: cell-based
# T1 construct: GR-expressing cells are in vitro cultured cells, preferably human lung epithelial carcinoma cells A549; endogenous in cells; host or cells: A549 (CCL-185, ATCC)
# T1 sequence (P04150 1-777): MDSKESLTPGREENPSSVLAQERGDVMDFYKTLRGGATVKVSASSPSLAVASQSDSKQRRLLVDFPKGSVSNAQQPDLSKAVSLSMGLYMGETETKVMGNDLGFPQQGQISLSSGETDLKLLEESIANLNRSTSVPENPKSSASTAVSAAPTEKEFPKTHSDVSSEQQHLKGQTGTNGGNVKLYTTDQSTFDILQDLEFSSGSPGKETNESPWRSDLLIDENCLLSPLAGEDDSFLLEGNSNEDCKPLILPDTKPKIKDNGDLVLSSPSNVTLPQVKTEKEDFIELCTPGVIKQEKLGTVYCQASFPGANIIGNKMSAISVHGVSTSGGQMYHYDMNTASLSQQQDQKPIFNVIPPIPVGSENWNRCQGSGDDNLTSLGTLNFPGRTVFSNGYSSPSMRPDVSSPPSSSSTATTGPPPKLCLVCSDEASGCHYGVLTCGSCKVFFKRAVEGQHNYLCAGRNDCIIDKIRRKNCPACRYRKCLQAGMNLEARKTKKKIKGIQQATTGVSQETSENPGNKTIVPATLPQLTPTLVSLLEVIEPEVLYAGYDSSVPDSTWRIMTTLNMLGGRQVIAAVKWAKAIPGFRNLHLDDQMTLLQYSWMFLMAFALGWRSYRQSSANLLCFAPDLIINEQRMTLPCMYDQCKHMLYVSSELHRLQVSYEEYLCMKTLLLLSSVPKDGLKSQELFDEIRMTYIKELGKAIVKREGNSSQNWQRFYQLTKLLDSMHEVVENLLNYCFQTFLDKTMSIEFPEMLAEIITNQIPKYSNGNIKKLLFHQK
# Experimental: For ChIP assays to test GR and cofactor binding to the nGRE, +GRE or NFκB region of various luciferase reporter plasmids, ˜60% confluent A549 cells in 100 mm TC dish were transfected with 2 μg of respective plasmids using fugene 6 reagent (Roche) and maintained in charcoal treated FCS containing medium. 44 hours post-transfection, 500 nM FA or Dex or RU24858 and/or 5 μM RU486, 5 ng/ml IL-1β (final conc.) was added to the medium for 2 hours, followed by formaldehyde treatment and processing as described above.
# [9] = target: T2, GR (Homo sapiens, UniProt P04150); details: cited from earlier work
# T2 sequence (P04150 1-777): T1 sequence (P04150 1-777)
# [10] = system: NFκB-driven transcription (PGL4-NFκB vector); assay: Luciferase assay in IL-1β-activated A549 cells transfected with PGL4-NFκB; type: cell-based, human; details: 6 hours, FIG. 15A left panel
# Experimental: (§4) A549 cells transfected with PGL4-NFκB (NFκBluc plasmid) of SEQ ID NO:56 and PGL4-AP1 (AP1luc plasmid) of SEQ ID NO:55 were treated as indicated for 6 hours, followed by luciferase assay. “BAY”=NFκB-specific inhibitor BAY 11-7082 and “JNK inhibit”=JNK inhibitor II). • B) Q-RT-PCR of gene transcripts from WT dorsal epidermis topically-treated with Dexamethasone or RU24858 for 18 hours (left panel) and from liver of WT mice IP-injected with Dexamethasone or RU24858 for 18 hours (right panel).
# (§5) Luciferase reporter assay. A549 cells seeded on 24-well tissue culture plates overnight at 70% confluency were transfected with 100 ng pCMV β galactosidase, 200 ng pGL3 reporter plasmids and wherever indicated, with 600 ng pSG5 hVDR plasmid (Green et al., 1988) into each well and maintained in medium containing charcoal treated FCS. 24 hours post-transfection, medium was changed and different compounds were added to it for 6 hours. Final concentrations of the compounds are: FA, 500 nM; Dex or RU24858, 300 nM or 500 nM (wherever 300 nM Dex or RU was used, it is indicated in the figure, in all other cases, 500 nM concentration was used); active vitamin D3, 1 μM; IL-1β, 5 ng/ml; BAY 11-7082, 5 μM, JNK inhibitor II, 25 μM. Luciferase assay was carried out as instructed (Promega). […]
# [11] = system: genes of which the skin expression was enhanced by topical TPA treatment; assay: Down-regulation of TPA-enhanced genes in mouse skin (NFκB-mediated tethered transrepression); type: in vivo; details: compared with Dex
# Source text: (§6) The “activity profile” of RU24858 was also investigated in vivo.
# [12] = system: AP1-driven transcription (PGL4-AP1 vector); assay: Luciferase assay in IL-1β-activated A549 cells transfected with PGL4-AP1; type: cell-based, human; details: 6 hours, FIG. 15A right panel
# Experimental: as §4, §5
# [13] = system: (+)GRE-containing GPX3 gene; assay: GPX3 expression in mouse epidermis after topical RU24858; type: in vivo
# Source text: (§7) Real time PCR. Total RNA was reverse transcribed using hexamers, followed by Q-PCR, as reported (Li et al., 2005).
# as §6
# [14] = target: T3, GR complexes on (+)GRE and nGRE regions (Mus musculus, UniProt P06537); assay: ChIP in vivo after RU24858 treatment
# T3 construct: from tissue; host or cells: mouse epidermis, pancreas, liver
# Source text: as §6
# [15] = system: (+)GRE (PGL3(VDRE) (+)GRE luciferase reporter); assay: Luciferase reporter assay in A549 cells, PGL3(VDRE) (+)GRE vector; type: cell-based, human; details: compared with Dex
# Experimental: as §5, with “(Promega). Normalized values are reported as the mean±SEM; each value originates from at least three individual transfections with assays performed in duplicate.” for “(Promega).”
# [16] = system: (+)GRE-containing GGT1 and ERP27 genes; assay: GGT1 and ERP27 expression in mouse liver after RU24858; type: in vivo
# Source text: as §7, §6
# [17] = system: IR0, IR1 and IR2 nGRE-containing genes; assay: Q-RT-PCR of IR nGRE-containing genes in WT mouse epidermis or liver after Dexamethasone or RU24858 for 18 hours; details: in vivo, FIG. 15B, compared with Dex
# Experimental: as §4, §7, §6
# [18] = target: T2, GR; details: cited from earlier work; remark: listed apart in the source
structure (smiles),measurement,setting,value
"CC#C[C@]1(O)CC[C@H]2[C@@H]3CCC4=CC(=O)CCC4=C3[C@@H](c3ccc(N(C)C)cc3)C[C@@]21C [RU486, mifepristone]",FA block of MC-induced TSLP RNA upon RU co-treatment,"[1]; WT mice, ears, topical",restored
same,FA-induced inhibition of basal TSLP RNA level upon co-application of RU486,"[1]; WT mice, ears, topical",relieved
same,GC-induced repression of IR0 and IR2 genes upon co-administration of RU,[2],relieved
same,effect of Dex treatment on IR nGRE-mediated transrepression upon excess RU co-treatment,[3],reverted
same,FA-induced decrease of luciferase expression (IR1 nGRE) upon RU addition,[4],prevented
same,effect on MC-dependent expression of the CYP24A1 gene,[5],no effect
same,FA-enhanced GPX3 expression upon RU co-treatment,[6],inhibited
same,effect of RU on NFκB/AP1-mediated tethered transrepression,[7],little effect
C[C@@H]1C[C@H]2[C@@H]3CCC4=CC(=O)C=C[C@]4(C)[C@@]3(F)[C@@H](O)C[C@]2(C)[C@H]1C(=O)CC#N [RU24858],recruiting a repressing complex tethered to NFκB bound to its cognate element,[8],as efficient as Dex
same,dissociated profile (tethered indirect transrepression vs direct transactivation) in vitro,[9],exhibit the expected dissociated profile in vitro
same,repression of IL1β-induced activation of transcription by NFκB,[10],almost as efficient as Dex
same,"down-regulating, through NFκB-mediated tethered transrepression, genes enhanced by topical TPA",[11],as efficient as Dex
same,repression of IL1β-induced activation of transcription by AP1,[12],almost as efficient as Dex
same,GC-dependent expression of the (+)GRE-containing GPX3 gene,[13],did not activate
same,GR-SMRT/NCoR repressing complexes on nGRE regions,[14],recruitment of GR-SMRT/NCoR repressing complexes
same,"assembly of an activating complex on (+)GRE of GPX3, GGT1 and ERP27",[14],did not induce assembly of an activating complex
same,inducing transactivation of (+)GRE pGL3 luciferase plasmid,[15],much less efficient than Dex
same,GC-dependent expression of the ERP27 gene,[16],did not activate
same,GC-dependent expression of the GGT1 gene,[16],did not activate
same,transrepression of IR0 nGRE gene CCND1,[17],as efficient as Dex
same,transrepression of IR1 nGRE gene CYP26A1,[17],as efficient as Dex
same,transrepression of IR1 nGRE gene K14,[17],as efficient as Dex
same,transrepression of IR1 nGRE gene PRKCB,[17],as efficient as Dex
same,transrepression of IR1 nGRE gene TSLP,[17],as efficient as Dex
same,transrepression of IR2 nGRE gene DPAGT1,[17],as efficient as Dex
same,dissociation upon administration in vivo,[18],failed to confirm this dissociation
"C=C1/C(=C\C=C2/CCC[C@]3(C)[C@@H]([C@H](C)/C=C/[C@@H](O)C4CC4)CC[C@@H]23)C[C@@H](O)C[C@@H]1O [MC903, Calcipotriol]",MC-induced TSLP expression in GRep-/- compared with WT mice,[1]; GRep-/- vs WT mice,more efficient
same,TSLP RNA level,"[1]; WT mice, ears, topical MC903",increase
